{"source": "ChEMBL document CHEMBL1201862", "about": "“PubChem BioAssay data set” (2004)", "key": {"[1]": {"assay": "viability of HCT116 lacking mutant beta-catenin – cell-based, human colon tumor, dose response (AID 1045);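 also: HCT116 colon tumor cells with beta catenin knocked out; cells exposed to compound for 60 hours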", "type": "functional"}, "[2]": {"assay": "viability of PTEN-deleted HCT116 cells – cell-based, HCT116 PTEN knockout, dose response (AID 1047);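 also: HCT116 colon tumor cells with PTEN knocked out; cells exposed to compound for 60 hours before readout; potency for loss of cell viability measured by luminescence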", "type": "functional"}, "Ion channel NompC": {"molecular_target": "Ion channel NompC (Danio rerio, UniProt Q7T1G6)", "sequence (Q7T1G6 whole entry)": "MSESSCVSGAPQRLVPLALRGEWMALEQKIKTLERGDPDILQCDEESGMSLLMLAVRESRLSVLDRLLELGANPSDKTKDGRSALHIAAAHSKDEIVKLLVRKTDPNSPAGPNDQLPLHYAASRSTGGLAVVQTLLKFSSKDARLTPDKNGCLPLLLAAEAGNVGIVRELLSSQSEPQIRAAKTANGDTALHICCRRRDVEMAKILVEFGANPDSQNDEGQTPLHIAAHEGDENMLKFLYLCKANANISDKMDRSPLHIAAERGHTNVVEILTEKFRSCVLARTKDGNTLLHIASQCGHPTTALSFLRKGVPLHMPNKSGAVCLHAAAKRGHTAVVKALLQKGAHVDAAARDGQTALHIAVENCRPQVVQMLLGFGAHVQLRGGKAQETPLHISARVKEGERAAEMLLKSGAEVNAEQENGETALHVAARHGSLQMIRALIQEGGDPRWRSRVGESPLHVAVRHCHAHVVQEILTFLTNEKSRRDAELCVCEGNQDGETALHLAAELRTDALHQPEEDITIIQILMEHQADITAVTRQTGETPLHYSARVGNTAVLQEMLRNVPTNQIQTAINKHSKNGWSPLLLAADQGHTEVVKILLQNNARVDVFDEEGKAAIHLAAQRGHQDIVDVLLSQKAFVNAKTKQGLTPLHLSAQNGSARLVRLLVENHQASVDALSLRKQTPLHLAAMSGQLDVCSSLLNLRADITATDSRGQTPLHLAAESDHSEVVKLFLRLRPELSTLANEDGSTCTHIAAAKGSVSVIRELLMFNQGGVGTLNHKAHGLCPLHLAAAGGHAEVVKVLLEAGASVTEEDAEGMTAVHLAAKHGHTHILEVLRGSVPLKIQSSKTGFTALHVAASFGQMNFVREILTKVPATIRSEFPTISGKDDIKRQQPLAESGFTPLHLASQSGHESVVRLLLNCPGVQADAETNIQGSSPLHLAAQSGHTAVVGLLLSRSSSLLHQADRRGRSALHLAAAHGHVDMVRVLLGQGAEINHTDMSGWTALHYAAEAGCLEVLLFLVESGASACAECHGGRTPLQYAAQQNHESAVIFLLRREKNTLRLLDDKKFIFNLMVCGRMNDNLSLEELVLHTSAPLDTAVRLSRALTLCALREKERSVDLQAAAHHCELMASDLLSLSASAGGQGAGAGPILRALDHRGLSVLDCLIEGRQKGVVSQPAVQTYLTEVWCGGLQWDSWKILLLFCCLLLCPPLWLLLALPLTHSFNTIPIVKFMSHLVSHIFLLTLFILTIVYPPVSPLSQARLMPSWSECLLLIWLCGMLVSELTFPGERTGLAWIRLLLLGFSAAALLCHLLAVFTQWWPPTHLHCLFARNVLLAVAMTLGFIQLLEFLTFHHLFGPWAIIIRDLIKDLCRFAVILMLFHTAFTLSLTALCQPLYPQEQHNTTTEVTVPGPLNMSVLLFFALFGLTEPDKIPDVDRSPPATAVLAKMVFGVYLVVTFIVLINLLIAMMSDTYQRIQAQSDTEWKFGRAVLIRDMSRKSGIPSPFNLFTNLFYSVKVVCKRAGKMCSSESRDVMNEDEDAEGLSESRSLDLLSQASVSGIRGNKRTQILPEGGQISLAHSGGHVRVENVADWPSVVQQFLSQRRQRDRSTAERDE", "assay": "Fluorescence counterscreen assay for TRPML3 agonists: dose response cell-based high-throughput screening assay to identify agonists of the transient receptor potential channel N1 (TRPN1). [Related pubchem assays: 1526, 1424, 1448 ]", "type": "functional"}, "Mucolipin-3": {"molecular_target": "Mucolipin-3 (Homo sapiens, UniProt Q8TDD5)", "sequence (Q8TDD5 whole entry)": "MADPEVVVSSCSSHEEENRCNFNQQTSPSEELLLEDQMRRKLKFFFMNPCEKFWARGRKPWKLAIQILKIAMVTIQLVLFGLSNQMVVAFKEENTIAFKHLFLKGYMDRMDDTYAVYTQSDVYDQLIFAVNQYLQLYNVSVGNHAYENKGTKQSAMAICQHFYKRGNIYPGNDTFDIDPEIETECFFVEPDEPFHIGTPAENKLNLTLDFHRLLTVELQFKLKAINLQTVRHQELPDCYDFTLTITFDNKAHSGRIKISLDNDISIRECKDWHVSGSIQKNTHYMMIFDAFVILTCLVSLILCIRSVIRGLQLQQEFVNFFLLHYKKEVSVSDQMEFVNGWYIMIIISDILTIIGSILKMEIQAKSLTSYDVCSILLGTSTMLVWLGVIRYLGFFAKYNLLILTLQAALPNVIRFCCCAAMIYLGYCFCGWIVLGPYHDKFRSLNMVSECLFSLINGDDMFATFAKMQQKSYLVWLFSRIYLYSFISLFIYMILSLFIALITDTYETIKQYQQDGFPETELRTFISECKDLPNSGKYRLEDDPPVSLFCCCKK", "assay": "Dose response cell-based high-throughput screening assay for agonists of the transient receptor potential channel ML3 (TRPML3). [Related pubchem assays: 1526, 1424, 1448 ]", "type": "functional"}, "[3]": {"molecular_target": "Serine/threonine-protein phosphatase PP1-alpha catalytic subunit (Homo sapiens, UniProt P62136)", "sequence (P62136 whole entry)": "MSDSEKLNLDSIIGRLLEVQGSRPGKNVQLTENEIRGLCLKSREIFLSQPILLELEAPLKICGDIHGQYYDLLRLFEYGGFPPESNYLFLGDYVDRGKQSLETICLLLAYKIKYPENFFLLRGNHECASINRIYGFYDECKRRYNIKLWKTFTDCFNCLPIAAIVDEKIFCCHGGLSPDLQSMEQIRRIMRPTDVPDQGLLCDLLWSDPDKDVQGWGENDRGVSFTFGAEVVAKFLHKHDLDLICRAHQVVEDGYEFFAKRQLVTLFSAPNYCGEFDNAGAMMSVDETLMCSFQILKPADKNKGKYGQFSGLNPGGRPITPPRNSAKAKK", "assay": "inhibition of protein phosphatase 1 activity – biochemical, fluorescence, dose response (AID 2403);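 also: phosphatase turnover of OMFP into fluorescent 3-O-methylfluorescein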"}, "[4]": {"molecular_target": "Serine/threonine-protein phosphatase (Homo sapiens, UniProt Q9BPW0)", "sequence (Q9BPW0 whole entry)": "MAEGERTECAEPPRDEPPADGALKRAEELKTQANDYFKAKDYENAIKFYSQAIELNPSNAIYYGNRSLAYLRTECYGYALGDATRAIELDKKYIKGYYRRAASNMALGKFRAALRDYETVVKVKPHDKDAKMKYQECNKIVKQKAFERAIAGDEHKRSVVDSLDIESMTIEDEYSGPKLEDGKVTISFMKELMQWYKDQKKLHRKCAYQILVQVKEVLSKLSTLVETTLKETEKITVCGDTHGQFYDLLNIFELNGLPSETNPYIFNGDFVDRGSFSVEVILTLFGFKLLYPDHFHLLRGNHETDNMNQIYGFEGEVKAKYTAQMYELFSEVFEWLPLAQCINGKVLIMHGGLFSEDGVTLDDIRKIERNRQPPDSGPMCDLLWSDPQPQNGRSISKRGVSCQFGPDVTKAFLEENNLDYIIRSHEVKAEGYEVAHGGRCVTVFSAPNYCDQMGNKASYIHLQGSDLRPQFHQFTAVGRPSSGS", "assay": "Counterscreen for inhibitors of PP1: fluorescence-based biochemical high throughput dose response assay to identify inhibitors of Protein Phosphatase 5 (PP5). [Related pubchem assays: 2034 (Summary (PP5 inhibitors)), 1987 (PP5 inhibitors in singlate), 2235 (PP1 inhibitors in singlate)]"}, "Bcl-2-like protein 10": {"molecular_target": "T1, Bcl-2-like protein 10 (Homo sapiens, UniProt Q9HD36)", "T1 sequence (Q9HD36 whole entry)": "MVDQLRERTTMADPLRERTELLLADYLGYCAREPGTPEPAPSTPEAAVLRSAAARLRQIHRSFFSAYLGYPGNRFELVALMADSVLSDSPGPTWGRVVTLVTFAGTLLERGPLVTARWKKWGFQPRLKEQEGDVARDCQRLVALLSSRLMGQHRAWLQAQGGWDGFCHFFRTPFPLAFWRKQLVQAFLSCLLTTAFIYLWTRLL", "assay": "Concentration-response of Bcl-B inhibitors by biochemical FP with TR3 (AID 1243)", "type": "functional"}, "HEK293 [5]": {"tested_on": "HEK293", "assay": "inhibition of NOD1-driven NF-kB reporter – cell-based, luminescence, uHTS, primary screen (AID 1578)", "type": "functional", "details": "Homo sapiens"}, "HEK293 [6]": {"tested_on": "HEK293", "assay": "cells", "type": "functional, cell-based", "details": "Homo sapiens"}, "HEK293 [7]": {"tested_on": "HEK293", "assay": "cells", "type": "functional, cell-based", "details": "Homo sapiens", "remark": "listed apart in the source"}, "HEK293 [8]": {"tested_on": "HEK293", "assay": "NOD2 signaling inhibitors in MDP-stimulated cells, cell-based, uHTS, luminescence (AID 2001)", "type": "functional", "details": "Homo sapiens"}, "[9]": {"molecular_target": "T2, Neuropeptide Y receptor type 2 (Homo sapiens, UniProt P49146)", "T2 sequence (P49146 whole entry)": "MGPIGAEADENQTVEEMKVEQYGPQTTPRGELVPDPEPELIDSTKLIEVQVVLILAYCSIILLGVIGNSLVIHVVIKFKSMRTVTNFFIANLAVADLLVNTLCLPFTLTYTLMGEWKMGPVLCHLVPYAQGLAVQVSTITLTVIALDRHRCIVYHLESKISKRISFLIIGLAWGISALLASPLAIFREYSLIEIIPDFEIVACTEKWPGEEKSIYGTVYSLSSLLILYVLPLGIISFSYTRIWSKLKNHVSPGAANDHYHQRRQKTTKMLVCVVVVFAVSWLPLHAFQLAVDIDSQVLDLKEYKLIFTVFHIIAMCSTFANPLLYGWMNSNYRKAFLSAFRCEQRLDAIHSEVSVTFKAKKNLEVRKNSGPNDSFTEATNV", "assay": "Fluorescence-based cell-based high-throughput dose response assay for agonists of NPY-Y2. [Related pubchem assays: 1703 (Screening assay (CNGC inhibitors).), 1359 (Screening assay (NPY-Y2 potentiators or agonists).), 1304 (Screening assay (NPY-Y1 potentiators or agonists).), 1710 (Screening assay (NPY-Y2 agonists).), 1791 (Summary AID.)]", "type": "functional"}, "[10]": {"molecular_target": "T3, Neuropeptide Y receptor type 1 (Homo sapiens, UniProt P25929)", "T3 sequence (P25929 whole entry)": "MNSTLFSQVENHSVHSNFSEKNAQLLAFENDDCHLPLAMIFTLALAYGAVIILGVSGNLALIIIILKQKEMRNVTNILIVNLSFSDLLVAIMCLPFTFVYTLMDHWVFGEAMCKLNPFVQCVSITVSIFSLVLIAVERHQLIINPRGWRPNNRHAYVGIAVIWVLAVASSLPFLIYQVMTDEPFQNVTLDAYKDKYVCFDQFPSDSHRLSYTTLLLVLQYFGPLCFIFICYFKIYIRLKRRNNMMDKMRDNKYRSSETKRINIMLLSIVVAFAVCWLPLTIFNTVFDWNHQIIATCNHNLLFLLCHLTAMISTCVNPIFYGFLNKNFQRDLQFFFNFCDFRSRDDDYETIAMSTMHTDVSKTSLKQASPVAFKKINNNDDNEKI", "assay": "Fluorescence-based counterscreen for agonists of NPY-Y2: cell-based high-throughput dose response assay for agonists of NPY-Y1.", "type": "functional"}, "HEK293 [11]": {"tested_on": "HEK293", "assay": "Fluorescence-based counterscreen for potentiators or agonists of NPY-Y2: cell-based high-throughput dose response assay to identify inhibitors of cyclic nucleotide gated ion channel (CNGC) activity. In this assay, the parental HEK293 cell line transfected with a cyclic-nucleotide gated ion channel (CNGC)-based cAMP sensor is used to measure inhibition of isoproterenol-induced CNGC activity by test compound.", "type": "functional", "details": "Homo sapiens"}, "Cytochrome P450 2D6": {"molecular_target": "Cytochrome P450 2D6 (Homo sapiens, UniProt P10635)", "sequence (P10635 whole entry)": "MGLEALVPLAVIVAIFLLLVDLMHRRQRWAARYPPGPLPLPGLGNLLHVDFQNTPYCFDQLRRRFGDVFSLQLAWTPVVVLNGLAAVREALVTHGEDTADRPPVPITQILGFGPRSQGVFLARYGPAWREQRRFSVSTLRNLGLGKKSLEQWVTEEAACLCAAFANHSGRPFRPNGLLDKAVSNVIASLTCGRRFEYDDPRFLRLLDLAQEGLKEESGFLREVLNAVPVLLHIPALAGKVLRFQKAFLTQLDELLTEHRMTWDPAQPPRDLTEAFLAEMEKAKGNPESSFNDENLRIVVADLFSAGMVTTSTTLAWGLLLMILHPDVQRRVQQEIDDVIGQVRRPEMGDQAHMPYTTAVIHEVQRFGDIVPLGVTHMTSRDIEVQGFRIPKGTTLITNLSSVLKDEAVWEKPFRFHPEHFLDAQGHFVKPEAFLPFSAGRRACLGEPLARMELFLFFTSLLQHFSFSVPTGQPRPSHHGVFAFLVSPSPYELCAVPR"}, "Melanocortin receptor 4": {"molecular_target": "Melanocortin receptor 4 (Homo sapiens, UniProt P32245)", "sequence (P32245 whole entry)": "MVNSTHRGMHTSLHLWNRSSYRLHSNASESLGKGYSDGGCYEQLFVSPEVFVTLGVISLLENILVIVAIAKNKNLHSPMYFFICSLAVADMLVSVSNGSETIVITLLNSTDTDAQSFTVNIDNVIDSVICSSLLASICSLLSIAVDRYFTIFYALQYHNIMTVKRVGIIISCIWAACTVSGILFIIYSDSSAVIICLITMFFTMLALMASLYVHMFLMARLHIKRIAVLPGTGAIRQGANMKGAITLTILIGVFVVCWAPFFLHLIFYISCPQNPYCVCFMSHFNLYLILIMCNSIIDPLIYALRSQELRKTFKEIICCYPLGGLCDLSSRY", "assay": "inhibitors of MC4R cAMP signaling – cell-based, TR-FRET, biased antagonists, dose response (AID 602298);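 also: antagonist potency against agonist-stimulated cAMP production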", "type": "functional"}, "[12]": {"molecular_target": "T3, Neuropeptide Y receptor type 1", "type": "functional"}, "[13]": {"assay": "cAMP pathway inhibition in counterscreen cell line – TR-FRET cAMP detection, counter-screen for MC4R biased antagonist project, dose response (AID 602305);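 also: U2OS cells stimulated with forskolin near its EC80 as the cAMP inducer; potency is for inhibition of forskolin-stimulated cAMP signaling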", "type": "functional, cell-based"}, "[14]": {"molecular_target": "T2, Neuropeptide Y receptor type 2", "type": "functional, cell-based"}}, "note": "Activity calls are given as the source filed them.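 For AC50 in this document: CYP2D6 member of a cytochrome P450 panel assay.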", "data": [{"smiles": "CC(c1ccccc1)N(NC(=O)C(O)(c1ccccc1)c1ccccc1)C(=O)c1ccccc1", "note": "(centres undefined)", "values": [{"measurement": "EC50", "setting": "[1]", "result": "11.3 µM (active)"}, {"measurement": "EC50", "setting": "[2]", "result": "13.9 µM (active)"}, {"measurement": "EC50", "setting": "Ion channel NompC", "result": "> 29.9 µM (not active)"}, {"measurement": "EC50", "setting": "Mucolipin-3", "result": "> 29.9 µM (not active)"}]}, {"smiles": "COc1ccc(NC(=O)C2C3CCC(O3)C2C(=O)O)c(OC)c1", "note": "(centres undefined)", "values": [{"measurement": "IC50", "setting": "[3]", "result": "4.95 µM (active)"}, {"measurement": "IC50", "setting": "[4]", "result": "4.79 µM (active)"}]}, {"smiles": "Nc1[nH]nc2ncc3cc4ccccc4nc3c12", "values": [{"measurement": "EC50", "setting": "Bcl-2-like protein 10", "result": "3.74 µM (active)"}, {"measurement": "EC50", "setting": "HEK293 [5]", "result": "11.9 µM (active)"}, {"measurement": "IC50", "setting": "HEK293 [6]", "result": "> 20 µM (inactive)"}, {"measurement": "IC50", "setting": "HEK293 [7]", "result": "7.35 µM (active)"}, {"measurement": "IC50", "setting": "HEK293 [8]", "result": "8.23 µM (active)"}]}, {"smiles": "Cc1cccc(C)c1OCC(O)CNC(C)(C)C", "note": "(centres undefined)", "values": [{"measurement": "EC50", "setting": "[9]", "result": "> 35.4 µM (not active)"}, {"measurement": "EC50", "setting": "[10]", "result": "> 35.4 µM (not active)"}, {"measurement": "EC50", "setting": "HEK293 [11]", "result": "17.9 µM (not active)"}, {"measurement": "AC50", "setting": "Cytochrome P450 2D6", "result": "8.91 µM (inconclusive)"}]}, {"smiles": "COC(=O)C1=C(C(=O)OC)SC2(S1)C(C(=O)OC)=C(C(=O)OC)SC1=C2c2cccc(C)c2NC1(C)C", "values": [{"measurement": "IC50", "setting": "Melanocortin receptor 4", "result": "3.83 µM (active)"}, {"measurement": "IC50", "setting": "[12]", "result": "> 35 µM (not active)"}, {"measurement": "IC50", "setting": "[13]", "result": "> 64.6 µM (inactive)"}, {"measurement": "IC50", "setting": "[14]", "result": "> 35 µM (not active)"}]}]}
